Experimental data taken from US10383881B2, “1,5-dihydro-2H-pyrrol-2-one compounds and methods of using same” (Frequency Therapeutics, Inc., priority 2016, dated 2019).

How the values were obtained:
[1] = molecular target: recombinant human GSK3β (Homo sapiens, UniProt P49841); experiment: In vitro enzymatic assay for inhibition of GSK3β (Kinase-Glo Max luminescence); format: biochemical; settings: 10 uM ATP, 0.1 mg/ml GSKtide, 30° C. for 40 minutes; read-out: Potency GSK-3beta
Description: (§1) Enzymatic activities using recombinant human GSK3 using an in vitro enzymatic assay for inhibition GSK3α and GSK3β.
(§2) The assay was performed using Kinase-Glo Max luminescence kinase assay kit (Promega). It measures kinase activity by quantitating the amount of ATP remaining in solution following a kinase reaction. The luminescent signal from the assay is correlated with the amount of ATP present and is inversely correlated with the amount of kinase activity. The compounds were diluted in 10% DMSO and 5 μl of the dilution was added to a 50 μl reaction so that the final concentration of DMSO is 1% in all of reactions. The enzymatic reactions were conducted at 30° C. for 40 minutes. The 50 μl reaction mixture contains 40 mM Tris, pH 7.4, 10 mM MgCl2, 0.1 mg/ml BSA, 2 mM DTT, 0.1 mg/ml GSKtide substrate, 10 uM ATP and GSK3. After the enzymatic reaction, 50 μl of Kinase-Glo Max Luminescence kinase assay solution (Promega) was added to each reaction and incubate the plate for 15 minutes at room temperature. Luminescence signal was measured using a BioTek Synergy 2 microplate reader.
(§3) Kinase activity assays were performed in duplicate at each concentration. The luminescence data were analyzed using the computer software, Graphpad Prism. The difference between luminescence intensities in the absence of Kinase (Lut) and in the presence of Kinase (Luc) was defined as 100% activity (Lut−Luc). […]

[2] = test system: Lgr5-positive cells; experiment: Expansion of Lgr5-positive cochlear cells from Lgr5-EGFP-IRES-Cre-ER mice (flow cytometry for Lgr5-GFP); format: cell-based, mouse; settings: 10 days (D10) in culture; for Potency: Lgr5-positive cell expansion; for % of Cells: percentage of GFP-positive (Lgr5-GFP) cells
Description: Lgr5-EGFP-IRES-Cre-ER mice (Barker et al., 2007) (http://jaxmice.jax.org/strain/008875.html) are used to analyze the effects of small molecules on cochlear stem cell expansion.
Isolation of stem cells from the inner ear: All animal studies are conducted under an approved institutional protocol according to National Institutes of Health guidelines. For experiments with neonatal mice (postnatal days 1-3), the cochleae are dissected in HBSS and the organ of Corti are separated from the stria vascularis and the modiolus. The organs of Corti are then treated with Cell Recovery Solution (Corning) for 1 h to separate cochlear epithelium from the underlying mesenchyme. Epithelia are then collected and treated with TrypLE (Life Technologies) for 15-20 minutes at 37° C. Single cells obtained by mechanical trituration are filtered (40 μm) and suspended in Matrigel (Corning) for 3D culture.
Cells are cultured in a 1:1 mixture of DMEM and F12, supplemented with Glutamax (GIBCO), N2, B27 (Invitrogen), EGF (50 ng/ml; Chemicon), bFGF (50 ng/ml; Chemicon), IGF1 (50 ng/ml; Chemicon) and the composition provided herein. Media are changed every other day.
Lgr5-positive cells are quantified after 10 days (D10) in culture in multiple conditions. Cell colonies are dissociated into single cells using TrypLE (Gibco). The cells are then stained with propidium iodide (PI) and are analyzed using a flow cytometer for Lgr5-GFP expression. The number of GFP-positive cells and the percentage of GFP-positive cells are quantified.
Atoh1-nGFP-positive cells are quantified at day 0 (D0) and day 10 (D10) of differentiation treatment to determine the number of hair cells that have differentiated. Cell colonies are incubated in Cell Recovery Solution to release the colonies from Matrigel and dissociated into single cells using TrypLE. The total number and percentage of GFP-positive cells are quantified using a flow cytometer for multiple culture conditions. ANOVA is used to compare means across conditions, and the two-tailed Student's T-test is used to compare each condition to the treatment with the highest yield.

[3] = test system: Wnt signaling pathway, TCF/LEF reporter-HEK293 Recombinant cell lines; experiment: Wnt signaling pathway activation in HEK293 cells (TCF/LEF reporter, luciferase); format: cell-based; settings: Homo sapiens, incubated overnight, read-out: Potency
Description: Assay: Wnt Signaling Pathway Activation in HEK293 Cells. Materials:
TCF/LEF reporter-HEK293 Recombinant cell lines
One-Step Luciferase Assay System
The assay was performed using TCF/LEF reporter-HEK293 Recombinant cell lines
Plate 32,000 TCF/LEF reporter-HEK293 Recombinant cells/well in a 96-well plate (volume=90 μL). The compounds were diluted in the thawing medium 1 containing 1% DMSO, and add 10 μL to each well (0.1% DMSO at final). The cells were incubated for overnight at 37° C. in 5% CO2 followed by adding 100 μL of One-Step Luciferase Assay System to each well. Plate was incubated for 30 min at room temperature in a darkroom.
Luminescence signal was measured using a BioTek Synergy 2 microplate reader.
Wnt signaling pathway activation assays were performed in triplicates at each concentration. The luminescence data were analyzed using the computer software, Graphpad Prism. The luminescence intensity in the absence of Compounds (Luc) was defined the minimum activity and the signal in the presence of the highest concentration of the Compound was defined as the maximum activity. Signal from the wells containing medium only was defined as background. […]

[4] = molecular target: recombinant human GSK3α (Homo sapiens, UniProt P49840); experiment: In vitro enzymatic assay for inhibition of GSK3α (Kinase-Glo Max luminescence); format: biochemical; settings: 10 uM ATP, 0.1 mg/ml GSKtide, 30° C. for 40 minutes; read-out: Potency GSK-3alpha
Chain of recombinant human GSK3α (P49840 whole entry): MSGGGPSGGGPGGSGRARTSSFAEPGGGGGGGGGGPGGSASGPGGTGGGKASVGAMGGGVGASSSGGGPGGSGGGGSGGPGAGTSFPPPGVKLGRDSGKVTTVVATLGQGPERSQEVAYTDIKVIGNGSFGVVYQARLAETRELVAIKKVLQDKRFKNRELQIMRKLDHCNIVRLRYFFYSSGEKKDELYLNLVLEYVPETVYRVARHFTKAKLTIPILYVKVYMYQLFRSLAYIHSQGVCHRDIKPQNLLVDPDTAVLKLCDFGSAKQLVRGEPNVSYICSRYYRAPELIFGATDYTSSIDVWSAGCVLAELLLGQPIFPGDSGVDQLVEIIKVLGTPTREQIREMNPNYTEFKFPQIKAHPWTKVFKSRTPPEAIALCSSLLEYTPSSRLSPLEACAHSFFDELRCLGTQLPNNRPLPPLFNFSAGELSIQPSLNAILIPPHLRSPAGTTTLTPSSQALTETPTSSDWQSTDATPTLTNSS
Description: as §1, §2, §3

Chain of recombinant human GSK3β (P49841 whole entry): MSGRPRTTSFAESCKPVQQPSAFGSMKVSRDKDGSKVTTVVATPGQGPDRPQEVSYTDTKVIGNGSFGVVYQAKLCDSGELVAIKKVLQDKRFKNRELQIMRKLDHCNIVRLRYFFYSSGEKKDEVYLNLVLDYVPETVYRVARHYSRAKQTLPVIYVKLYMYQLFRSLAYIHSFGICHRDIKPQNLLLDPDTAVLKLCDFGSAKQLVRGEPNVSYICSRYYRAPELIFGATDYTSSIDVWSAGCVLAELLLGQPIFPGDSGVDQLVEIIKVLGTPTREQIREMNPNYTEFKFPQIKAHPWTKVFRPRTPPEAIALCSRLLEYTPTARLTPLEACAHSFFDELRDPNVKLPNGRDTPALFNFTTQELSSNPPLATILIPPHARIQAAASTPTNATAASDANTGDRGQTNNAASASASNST

IC50 [1] | IC50 [4] | SMILES | Potency [2] | % of Cells [2] | EC50 [3]
22 nM | 15.6 nM | O=C1NCC(c2cn3c4c(cc(F)cc24)CN(C(=O)N2CCCCC2)CC3)=C1c1cnc2ccccn12 [Compound I-4] | 333.3 nM | 8.3% | 60 nM
8.3 nM | 8.2 nM | O=C1NCC(c2cnc3ccccn23)=C1c1cn2c3c(cc(F)cc13)CN(C(=O)N1CCCCC1)CC2 [Compound I-49] | 333.3 nM | 5.5% | < 10 nM
